Reference: PubChem BioAssay (NCI)
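Where inhibition never reached the appropriate level, the endpoint shown equals the highest concentration tested. Otherwise, values were interpolated linearly from a five-concentration, 48-hour dose response in 96-well plates. TGI denotes the concentration required for complete inhibition of growth.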

What was measured:
Assay in all cases: NCI-60 cell line screen, 48 h
DU-145 prostate = system: DU-145 prostate
A498 renal = system: A498 renal
U251 CNS = system: U251 CNS
T-47D breast = system: T-47D breast
BT-549 breast = system: BT-549 breast
NCI/ADR-RES ovarian = system: NCI/ADR-RES ovarian
SF-268 CNS = system: SF-268 CNS
HOP-92 NSCLC = system: HOP-92 NSCLC
HT29 colon = system: HT29 colon
NCI-H226 lung = system: NCI-H226 lung
LOX IMVI melanoma = system: LOX IMVI melanoma
SR leukemia = system: SR leukemia
HS 578T breast = system: HS 578T breast
SK-MEL-2 melanoma = system: SK-MEL-2 melanoma
ACHN renal = system: ACHN renal
MDA-MB-435 = system: MDA-MB-435
SK-MEL-5 melanoma = system: SK-MEL-5 melanoma
OVCAR-4 ovarian = system: OVCAR-4 ovarian
IGROV1 ovarian = system: IGROV1 ovarian
SK-OV-3 ovarian = system: SK-OV-3 ovarian
RXF 393 renal = system: RXF 393 renal
MDA-N = system: MDA-N
SNB-75 CNS = system: SNB-75 CNS
NCI-H460 lung = system: NCI-H460 lung
OVCAR-5 ovarian = system: OVCAR-5 ovarian
UACC-257 melanoma = system: UACC-257 melanoma
HL-60(TB) leukemia = system: HL-60(TB) leukemia
SW-620 colon = system: SW-620 colon
RPMI-8226 leukemia = system: RPMI-8226 leukemia
MCF7 breast = system: MCF7 breast
MOLT-4 leukemia = system: MOLT-4 leukemia
OVCAR-3 ovarian = system: OVCAR-3 ovarian
SNB-19 CNS = system: SNB-19 CNS
CAKI-1 renal = system: CAKI-1 renal
M14 melanoma = system: M14 melanoma
PC-3 prostate = system: PC-3 prostate
COLO 205 colon = system: COLO 205 colon
OVCAR-8 ovarian = system: OVCAR-8 ovarian
KM12 colon = system: KM12 colon
786-0 renal = system: 786-0 renal
UO-31 renal = system: UO-31 renal
TK-10 renal = system: TK-10 renal
A549 NSCLC = system: A549 NSCLC
HCT-116 colon = system: HCT-116 colon
SF-295 CNS = system: SF-295 CNS
K-562 leukemia = system: K-562 leukemia
NCI-H522 lung = system: NCI-H522 lung
SN12C renal = system: SN12C renal
EKVX NSCLC = system: EKVX NSCLC
CCRF-CEM leukemia = system: CCRF-CEM leukemia
HCC-2998 colon = system: HCC-2998 colon
SF-539 CNS = system: SF-539 CNS
MALME-3M melanoma = system: MALME-3M melanoma
HCT-15 colon = system: HCT-15 colon
UACC-62 melanoma = system: UACC-62 melanoma
MDA-MB-231 breast = system: MDA-MB-231 breast
NCI-H23 lung = system: NCI-H23 lung
HOP-62 NSCLC = system: HOP-62 NSCLC

Measured: TGI

Cc1ccc(Nc2cc(=O)[nH]c(=S)[nH]2)cc1
> 100 µM: all assays above
